{"source": "patent US20100119506A1", "about": "“Effectors of PAR-2 Activation and Their Use in the Modulation of Inflammation” (BOEHRINGER INGELHEIM INTERNATIONAL GMBH, priority 2008, published 2010)", "tested_on": "trans vivo delayed type hypersensitivity (DTH)", "experiment": "Trans vivo DTH model (footpad swelling)", "assay_type": "in vivo, mouse", "settings": "10 mg/kg; 24 hours after PBMCs and TT", "description": "FIGS. 8A and 8B show the ability of anti-PAR-2 antibodies Par-B (FIG. 8A) and Par-D (FIG. 8B) to inhibit trans vivo DTH. Shown are the changes in paw thickness after injection of human peripheral blood mononuclear cells alone (PBMC) or after injection of PBMCs and […] (TT). Mice were pretreated (ip at −3 hours) with PBS, hu IgG4 (20 mg/kg), or anti-PAR-2 antibody. Percent inhibition is shown at top of the bars. *p<0.05 as compared to PBS.\nThe trans vivo delayed type hypersensitivity (DTH) is a validated model of human T cell mediated inflammation in mice (Warnecke, G. et al. (2007) Transplantation 84(3):392-399; Pelletier, R. P. et al. (Mar. 28, 2007, Epub) Hum. Immunol. 68(6):514-522; Carrodeguas, L. et al. (1999) Hum. Immunol. 60(8):640-651). In this assay, human PBMCs from tetanus-sensitized donors are isolated and co-injected with tetanus toxoid (TT) into the mouse footpad. The swelling response that develops in the footpad is measured at 24 hours. This swelling response is dependent on antigen-specific activation of the human T cells as well as on the inflammation mediated by mouse cells.\nShown in FIG. 8A and FIG. 8B, are the changes in footpad thickness 24 hours after injection of PBMCs and TT."}
{"smiles": "C[C@@H]1C[C@H]2[C@@H]3CCC4=CC(=O)C=C[C@]4(C)[C@@]3(F)[C@@H](O)C[C@]2(C)[C@@]1(O)C(=O)CO", "note": "[dexamethasone, reference compound]", "values": [{"measurement": "inhibition of footpad swelling response", "value": "approximately 80%"}]}
